Results published in publication PMC5554220, “A Novel Aldosterone Antagonist Limits Renal Injury in 5/6 Nephrectomy” (Scientific Reports, 2017).

Tests used:
[1] = system: rats with 5/6 renal ablation (Nx); assay: Protocol 2 (late treatment), 5/6 renal ablation (Nx); format: in vivo, male Munich-Wistar rats; conditions: Ly as an add-on to L, Day 150
Text: One-hundred forty-five adult male Munich-Wistar rats, obtained from a local facility at the Faculty of Medicine, University of São Paulo, weighing between 220 and 250 g, were used in this study. All experimental procedures were approved by the local Research Ethics Committee (Comissão de Ética para Análise de Projetos de Pesquisa do Hospital das Clínicas da Faculdade de Medicina da Universidade de São Paulo, CAPPesq, process n° 0905/09), and carried out following strictly our institutional guidelines and current international standards for manipulation and care of laboratory animals. Body weights and general conditions were assessed daily. Five-sixths renal ablation (Nx) was performed as a single-step procedure under anesthesia with ketamine 50 mg/kg and xylazine 10 mg/kg im. After ventral laparotomy, the right kidney was excised and two or three branches of the left renal artery were ligated, so as to promote infarction of two-thirds of the left kidney. The operation was invariably well tolerated. Sham-operated rats underwent anesthesia and manipulation of the renal pedicles without removal of renal mass. After surgery, rats received enrofloxacin and, upon recovery, had free access to tap water and regular rodent chow containing 0.5 Na and 22% protein (Nuvital Labs, Curitiba, Brazil), and were kept at 23 ± 1 °C and 60 ± 5% relative air humidity, under an artificial 12–12 hour light/dark cycle. Rats were then treated following two different experimental protocols (described later).
In Protocol 2, adult male Munich-Wistar rats were subjected to Nx as described earlier, and left untreated for two months. At this time, TCP and UalbV were assessed as described earlier. Rats with TCP ≤ 170 mmHg or UalbV ≤ 40 mg/day were excluded from the study. The remaining […] Nx rats were divided into four experimental groups: Nx + V (N = 14), untreated Nx rats; Nx + L (N = 15), receiving oral L, 50 mg/kg in drinking water; Nx + L + Eple (N = 14), receiving L and Eple (N = 14), 150 mg/kg/day; and Nx + L + Ly (N = 14), receiving L and Ly (20 mg/kg/day) as described before. A group of S rats (N = 16) was also included. All groups were followed for 90 days after treatments were started (150 days after nephrectomy), with monthly measurement of TCP and UalbV. At the end of this period, rats were anesthetized, blood was collected, and the renal tissue was perfusion-fixed and prepared for histomorphometric and immunohistochemical examination in the same manner as for Protocol 1.
Histomorphometric analysis was performed blindly by two independent observers. The extent of glomerular injury was estimated, in PAS-stained sections, by determining the percentage of glomeruli with sclerotic lesions. The fraction of the renal cortical area occupied by interstitial tissue (%INT) was estimated in 25 consecutive microscopic fields of Masson-stained sections by a point-counting technique, at a final magnification of 200X, under a 144-point grid.
Immunohistochemistry was performed on 4-μm-thick sections, mounted on glass slides precoated with 2% silane. Sections were deparaffinized and rehydrated by conventional techniques, then heated in citrate buffer for antigen retrieval and incubated overnight with the primary antibody at 4 °C (no antibody in negative control experiments). Primary antibodies used were: monoclonal mouse anti-rat ED-1 (Serotec, Oxford, UK); polyclonal rabbit anti-human AngII (Peninsula Laboratories, San Carlos, CA); and polyclonal rabbit anti-collagen I (Abcam, Cambridge, UK).
For ED-1 detection, sections were preincubated with 5% normal rabbit serum to prevent nonspecific binding, then incubated overnight at 4 °C with the primary antibody diluted in BSA at 1%. […]

[2] = biological target: T1, human glucocorticoid receptor (hGR) (Homo sapiens, UniProt P04150); assay: Radioligand binding, hGR expressed in HEK293 cells
T1 construct: expressed in transfected cells; host or cells: HEK293 cells
T1 sequence (P04150 1-777): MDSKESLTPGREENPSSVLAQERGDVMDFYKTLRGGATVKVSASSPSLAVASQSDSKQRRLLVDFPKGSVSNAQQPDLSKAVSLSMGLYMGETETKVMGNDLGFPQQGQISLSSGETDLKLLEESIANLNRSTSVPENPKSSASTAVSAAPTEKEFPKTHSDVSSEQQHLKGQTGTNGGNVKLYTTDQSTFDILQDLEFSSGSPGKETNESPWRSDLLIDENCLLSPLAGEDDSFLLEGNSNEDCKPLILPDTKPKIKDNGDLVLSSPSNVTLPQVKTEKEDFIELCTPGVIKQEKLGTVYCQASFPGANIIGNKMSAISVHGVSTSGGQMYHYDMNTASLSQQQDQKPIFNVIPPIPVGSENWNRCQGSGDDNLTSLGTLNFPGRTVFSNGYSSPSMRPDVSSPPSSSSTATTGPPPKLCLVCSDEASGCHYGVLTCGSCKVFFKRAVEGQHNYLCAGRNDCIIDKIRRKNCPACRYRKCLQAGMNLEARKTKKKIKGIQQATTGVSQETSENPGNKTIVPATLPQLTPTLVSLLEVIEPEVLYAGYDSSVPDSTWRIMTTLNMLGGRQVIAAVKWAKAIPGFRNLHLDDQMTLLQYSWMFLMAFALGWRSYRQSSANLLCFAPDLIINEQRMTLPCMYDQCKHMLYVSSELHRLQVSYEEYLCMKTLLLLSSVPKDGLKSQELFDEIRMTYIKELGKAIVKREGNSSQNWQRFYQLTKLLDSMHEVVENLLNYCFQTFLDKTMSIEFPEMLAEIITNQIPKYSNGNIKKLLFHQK
Protocol: Affinity of ligands to the soluble receptor was determined using vacuum filtration methods, preparing soluble receptors in 96-well Falcon polystyrene plates (BD Biosciences, Bedford, MA) in a total volume of 250 μl. The hMR Sf9 lysate (approximately 20–25 μg protein in 20 μl) was incubated in the absence or presence of competing ligands with 10 μl of [1,2,6,7-3H] […] Binding studies for ligands for hPR and hAR were determined using [1,2,6,7-3H(N)] Progesterone (specific activity 103 Ci/mmol, at a final concentration 0.5 nM; NET381, NEN/Perkin Elmer Life Sciences, Boston, MA) and [17α-methyl-3H] Mibolerone, an enzymaticaly stable analog of testosterone (specific activity 76.8 Ci/mmol, final concentration 0.3 nM; NET919, NEN), respectively. Specific binding of 3H-progesterone for hPR and 3H-mibolerone for hAR was determined in the presence and absence of 1 μM mifepristone. Inhibition constants (Ki), were determined either from the Cheng-Prusoff equation[32], or directly using non-linear regression curve fitting to a three-parameter one-site competitive equation. Ki values obtained from individual concentration response curves were reported as the mean ± SEM. Protein was measured using colorimetric detection and quantification of bicinchoninic acid (BCA Protein Assay, Pierce, Rockford, IL). Cos-7L cells were cotransfected with expression vectors and a reporter plasmid responsive to all 3 nuclear hormone receptors. pBluescript II SK (+) (Stratagene, San Diego, CA) was included as a source of carrier DNA. The number of repetitions of full concentration response curves (n) represents values from at least two independent experiments for each condition. Concentration response curves were analyzed statistically using a four-parameter logistic equation (Hill equation for sigmoid curves). Similar methodology was adopted for the human glucocorticoid receptor (hGR) expressed in HEK293 cells.

O=c1[nH]c2ccc(/C=C3\c4ccc(F)cc4COc4cc(F)ccc43)cc2[nH]1 [Ly]
Interstitial expansion (cortical interstitial area) [1]: reduced to levels significantly lower than in the Nx + V group | Ki ([2]; hGR expressed in HEK293 cells, read-out: Mean Ki ± SEM hGR*): 112 ± 18 nM | Ratio of Ki's hGR*: hMR ([2]; selectivity): 70
